Residues, ends and D or L forms follow the SMILES beside them. *: point of attachment. Cbz = O=C(OCc1ccccc1)*
Key:
ypt1^ts cells = experiment: ypt1^ts mutant growth rescue assay (OD600); assay type: cell-based, yeast; conditions: for rescue of ypt1^ts loss of function / restoring growth of ypt1^ts: 35° C. and 37° C.
Source text: The yeast mutant cell line ypt1^ts suppresses, in a temperature dependent fashion, the dominant-lethal phenotype of a mutant YPT1 allele (Schmitt et al. (1988) Cell 53:635-47). The yeast mutant cell line ypt1^ts contains an allele of YPT1 that has two point mutations: one that changes an asparagine at position 121 to a isoleucine (N121I) and another that changes an alanine at position 161 to a valine (A161V). The N121I mutation causes dominant lethality by itself, but lethality is suppressed by the second mutation, resulting in a recessive loss of function phenotype at the restrictive temperatures. ypt1^ts cells grow normally at temperatures up to 25° C., but are growth arrested at 37° C. (Id.).
Compounds that rescue cells from alpha-synuclein toxicity were screened to assess their ability to restore growth of ypt1^ts cells. The effect of the compounds was measured on ypt1^ts cells cultured at room temperature (permissive temperature), 37° C. (non-permissive temperature), and 35° C. (semi-permissive temperature).
To determine if the test compounds could rescue the ypt1^ts mutant phenotype, ypt1^ts cells were grown overnight in synthetic complete (SC) media supplementd with 2% glucose at room temperature. Log phase cells were diluted into SC 2% glucose media to an OD600 of 0.003. 100 μL of this culture was then aliquoted into each well of 96-well flat bottom microtiter plates. 1 μL of the test compounds dissolved in DMSO (at a concentration range from 5 mM-0.005 mM) or of DMSO alone was added to each well (50 uM-0.05 uM final concentration in 1% DMSO). Plates were mixed by vortexing and incubated at 35° C. and 37° C. Compound rescue of the ypt1^ts temperature sensitive defect was assessed by measuring the OD600 (optical density at 600 nm; cell growth) of the cultures. Plates incubated at 35° C. were measured at 24 and 40 hours incubation time while plates grown at 37° C. were measured after 40 hours of incubation.
Assays monitoring the rescue of ypt1^ts mutants were performed using a vehicle, a positive control (calcium), active compounds obtained from the alpha-synuclein screen (Cpd. I.1 and Cpd. II.1), alpha-synuclein-active analogs of Cpd. […] I.1 (Cpd. I.4 and Cpd. I.5).

[1] = test system: sec23-2^ts mutant yeast strain; experiment: sec23^ts mutant growth rescue assay (OD600); assay type: cell-based; conditions: 30° C., 24 hours, 0.05 to 50 μM
Procedure: The sec23-2^ts mutant yeast strain carries a temperature sensitive mutant allele of the SEC23 gene, which permits the strain to grow normally at 25° C., but undergo growth arrest at 30° C. or higher. Inactivation of the Sec23 temperature-sensitive mutant protein at the restrictive temperature prevents the formation of transport vesicles at the ER resulting in a block in ER to golgi trafficking (see, e.g., Hicke et al. (1989) EMBO J. 8(6):1677-1684 and Castillo-Flores et al. (2005) J. Biol. Chem. 280(40):34033-34041).
To identify compounds that rescue the sec23^ts mutant phenotype, the mutant strain was first grown at 25° C. in rich media overnight. The strain was then diluted to an OD600 of 0.004 in SC media with 2% glucose, and mixed with various dilutions of test compounds compounds compounds (0.05 to 50 μM) in SC media with 2% glucose. The cells were then incubated at 25° C. or 30° C. for 24 hours. Rescue of the sec23^ts mutant phenotype was scored as an increase in the OD600 of cells cultured in the presence of the a compound as compared to cells cultured in the absence of the test compound.

alpha-synuclein toxicity = experiment: alpha-synuclein screen (rescue of cells from alpha-synuclein toxicity); assay type: cell-based
[2] = test system: sar1^ts mutant yeast strain; experiment: sar1^ts mutant growth rescue assay (OD600); assay type: cell-based; conditions: 35° C., 72 hours, 0.05 to 50 μM
Procedure: The sar1st mutant yeast strain (ATCC, Manassas, Va.) carries a temperature sensitive mutant allele of the SAR1 gene, which permits the strain to grow at 25° C., but undergo growth arrest at 35° C. or higher. Inactivation of the mutant Sar1^ts protein at 35° C. prevents the formation of transport vesicles at the ER, causing a block in ER to golgi trafficking (Saito et al. (1998) J. Biochem. (Tokyo) 124(4):816-823).
To identify compounds that rescue the sar1^ts mutant phenotype, the mutant strain was first grown at 25° C. in rich media overnight. The strain was then diluted to an OD600 of 0.004 in SC media with 2% glucose, and mixed with various dilutions of test compounds (0.05 to 50 μM) in SC media with 2% glucose. The cells were then incubated at 25° C. or 35° C. for 72 hours. Rescue of the sar1^ts mutant phenotype was scored as an increase in the OD600 (concentration of the yeast cells) cultured in the presence of a test compound as compared to cells cultured cultured in the absence of the test compound.

ΔF508 CFTR mutant = conditions: cell-based studies, cited from earlier work
ΔF508 CFTR = ΔF508 CFTR stabilization in CFBE cells, western blot; assay type: cell-based; conditions: 16 hours, 37° C.; for amount of cellular ΔF508 CFTR protein (band B) / amount of the glycosylated form of ΔF508 CFTR (band C): vs DMSO; for amount of glycosylated and unglycosylated ΔF508 CFTR proteins compared to absence of compound: all concentrations tested (1-10 μM)
Procedure: Selected compounds identified in the ypt1^ts screen were further tested for their ability to stabilize ΔF508 CTFR. CFBE cells, a cell line generated by transformation of cystic fibrosis tracheo-bronchial cells (ΔF508 CTFR homozygous) with SV40 (Bruscia et al. (2002) Gene Ther. 9(11):683-685), were cultured with 10 μM Cpd. I.3, 10 μM Cpd. II.2, or 10 μM VRT-325 for 16 hours at 37° C. (VRT-325 is described in, e.g., Van Goor et al. (2006) Am. J. Physiol. Lung Cell Mol. Physiol. 290:L1117-L1130). A population of cells was also cultured with the dimethyl sulfoxide (DMSO) solvent as a control.
Following incubation, cells were lysed, solubilized in Laemmli buffer, and subjected to SDS-PAGE. CFTR protein was visualized by western blotting using an antibody specific for CFTR. Culturing CFBE cells with Cpd. I.3 or Cpd. II.2 increased the amount of cellular ΔF508 CFTR protein (see band “B,” FIG. 3A). Cpd. I.3 and Cpd. […] The effects of Cpd. I.3 or Cpd.
Next, to test the effect of different concentrations of Cpd. I.3 and Cpd. II.2 on ΔF508 CFTR, a dose response experiment was performed. CFBE cells were grown at 37° C. for 16 hours in the presence of 1, 2.5, 5, or 10 μM Cpd. I.3 or Cpd. II.2. Following incubation, lysates were prepared from the various treated cell populations, the lysates solubilized in Laemmli buffer, and subjected to SDS-PAGE. The relative amounts of glysosylated (band “C”) and unglycosylated (band “B”) ΔF508 CFTR protein were visualized by western blotting as above (FIGS. 4A and 4C). The band intensities were quantitated by scanning and densitometry. […] I.3 (FIG. 4B) and Cpd. II.2 (FIG. 4D), respectively.

Row | Compound | rescue of ypt1^ts loss of function / restoring growth of ypt1^ts (ypt1^ts cells) | rescue of the sec23^ts mutant phenotype [1] | rescue of the sar1^ts mutant phenotype [2] | other results
1 | tunicamycin [reference compound] | effective | – | – | –
2 | N=C(NC(=O)[C@@H]1C[C@@H]1c1ccccc1)Nc1nc2ccccc2o1 [Cpd. I.5] | did not | not detected | rescue | activity in the alpha-synuclein screen (alpha-synuclein toxicity): inactive
3 | C[C@@H]1C[C@@H]([C@H](O)CC2CC(=O)NC(=O)C2)C(=O)[C@@H](C)C1 [cycloheximide, reference compound] | effective | not detected | rescue | –
4 | N=C(NC(=O)[C@H]1C[C@@H]1c1ccccc1)Nc1nc2ccccc2o1 [Cpd. I.2] | rescued | – | – | activity in the alpha-synuclein screen (alpha-synuclein toxicity): active
5 | CC(C)C[C@H](NC(=O)[C@H](Cc1ccccc1)NC(=O)c1cnccn1)B(O)O [bortezomib] | – | – | – | cellular chloride efflux (ΔF508 CFTR mutant; ΔF508 CFTR mutant): restoring; stabilization of the ΔF508 CFTR mutant, preventing premature degradation (ΔF508 CFTR mutant): stabilize
6 | CO[C@@H]1[C@@H](OC(N)=O)[C@@H](O)[C@H](Oc2ccc3c(O)c(NC(=O)c4ccc(O)c(CC=C(C)C)c4)c(=O)oc3c2C)OC1(C)C [novobiocin, reference compound] | effective | – | – | –
7 | COc1ccc(OC)c(C2CC(=O)Nc3c2ccc2ccccc32)c1 (stereo not drawn) [II.12] | – | not detected | not detected | –
8 | CCC(=O)/N=C(\N)Nc1nc2ccccc2s1 [Cpd. I.1] | rescue | rescue | rescue | activity in the alpha-synuclein screen (alpha-synuclein toxicity): active
9 | O=C1CC(c2cccc(Cl)c2)c2ccc(-c3ccccc3)cc2N1 (stereo not drawn) [II.27] | – | not detected | not detected | –
10 | N/C(=N\C(=O)CCc1ccco1)Nc1nc2ccccc2o1 [Cpd. I.6] | – | not detected | rescue | –
11 | O=C1CC(c2cccc(Cl)c2)c2cc3c4c(cccc4c2N1)CC3 (stereo not drawn) [II.57] | – | not detected | not detected | –
12 | O=C1CC(c2cccc(Cl)c2)c2ccc3c(c2N1)CCC3 (stereo not drawn) [Cpd. II.2] | – | not detected | not detected | effects on stabilizing ΔF508 CFTR compared with VRT-325 (ΔF508 CFTR; 10 μM): comparable or better; amount of cellular ΔF508 CFTR protein (band B) (ΔF508 CFTR; 10 μM): increased; amount of the glycosylated form of ΔF508 CFTR (band C) (ΔF508 CFTR; 10 μM): increased; concentration at which efficacy reached a maximum (dose response curves from western blot) (ΔF508 CFTR): 2.5 to 5 µM; amount of glycosylated and unglycosylated ΔF508 CFTR proteins compared to absence of compound (ΔF508 CFTR): increase
13 | [Ca+2] [calcium, reference compound] | rescued | – | – | –
14 | O=C1CC(c2cccc(Cl)c2)c2cc3c(cc2N1)CCC3 (stereo not drawn) [Cpd. II.3] | – | – | – | rescue of the ypt1^ts mutant phenotype (ypt1^ts cells; 5.0 μM, 37° C., 40 hours): rescued
15 | COc1cccc2c1C(=O)c1c(O)c3c(c(O)c1C2=O)C[C@@](O)(C(=O)CO)C[C@@H]3O[C@H]1C[C@H](N)[C@H](O)[C@H](C)O1 [doxorubicin, reference compound] | effective | not detected | not detected | –
16 | N/C(=N\C(=O)C1CC1)Nc1nc2ccccc2s1 [Cpd. I.3] | rescued | rescue | rescue | effects on stabilizing ΔF508 CFTR compared with VRT-325 (ΔF508 CFTR; 10 μM): comparable or better; amount of cellular ΔF508 CFTR protein (band B) (ΔF508 CFTR; 10 μM): increased; amount of the glycosylated form of ΔF508 CFTR (band C) (ΔF508 CFTR; 10 μM): increased; concentration at which efficacy reached a maximum (dose response curves from western blot) (ΔF508 CFTR): 1 to 2.5 µM; amount of glycosylated and unglycosylated ΔF508 CFTR proteins compared to absence of compound (ΔF508 CFTR): increase; activity in the alpha-synuclein screen (alpha-synuclein toxicity): active; rescue of the ypt1^ts mutant phenotype (ypt1^ts cells; 2.0 μM, 37° C., 40 hours): rescued
17 | C#Cc1cccc(C2CC(=O)Nc3c2ccc2c3CCC2)c1 (stereo not drawn) [II.59] | – | not detected | not detected | –
18 | aureobasidin [reference compound] | effective | not detected | not detected | –
19 | N/C(=N\C(=O)C1CCCCC1)Nc1nc2ccccc2o1 [Cpd. I.4] | did not | – | – | activity in the alpha-synuclein screen (alpha-synuclein toxicity): inactive
20 | CC(C)C[C@@H](C=O)NC(=O)[C@H](CC(C)C)NC(=O)[C@H](CC(C)C)NC(=O)OCc1ccccc1 [MG132, reference compound] (Cbz-Leu-Leu-Leu-aldehyde) | – | – | – | rescue of ypt1^ts loss of function (ypt1^ts cells; 37° C., 40 hours, range 0.05-50 μM, intermediate concentrations): rescued
21 | O=C1CC(c2ccccc2)c2ccc3ccccc3c2N1 (stereo not drawn) [Cpd. II.1] | rescue | not detected | not detected | activity in the alpha-synuclein screen (alpha-synuclein toxicity): active
22 | COc1ccc(S(=O)(=O)N2CCN(C(C)c3nc(OC4CCCCC4)c4ccccc4n3)CC2)cc1 (stereo not drawn) [VRT-325, reference compound] | – | – | – | stabilization of ΔF508 CFTR protein in CFBE cells (ΔF508 CFTR; 10 μM): stabilization
